# Data as given in patent US7524866B2, “Prevention and treatment of androgen—deprivation induced osteoporosis” (GTx, Inc., priority 2001, dated 2009).
# Columns and labels:
# [1] = tested on: C-telopeptide of rat collagen I in serum; assay: Serum RatLaps ELISA, C-telopeptide of type I collagen, orchidectomy model (Example 3); assay type: in vivo; settings: orchidectomized rats, 15 and 30 days; Toremifene 5 mg/kg/day, 17-β-estradiol 0.5 mg/kg/day s.c.; FIG. 1
# Description: Male Sprague-Dawley rats (Harlan Sprague Dawley) were placed on study at 14-weeks of age. They were randomized and divided into five treatment groups: vehicle only (placebo, or P) after sham operation, vehicle only after orchidectomy (Orx), Toremifene (5 mg/kg/day) after sham-operation, and Toremifene after orchidectomy, and 17-β-estradiol (0.5 mg/kg/day) after orchidectomy. Test articles were delivered subcutaneously by Alzet pumps. Pumps were re-implanted every 30 days until the end of the study. Five to six animals from each group were sacrificed after 60 and 120 days of treatment, and femurs were harvested, stripped of soft tissue and muscle, and stored individually in polypropylene vials at −80° C. until analysis of bone density and mechanical strength testing. Additionally, serum was collected on days 15, 30, 60, 90 and 120, to measure markers of bone metabolism and to perform serum chemistry. […]
# The assay was performed in duplicates, each 20 ul of serum as well as standards and control. […] After washing the strips 100 ul of the Chromogenic Substrate Solution was added to each well, and after 15 min the reaction was stopped and the absorbance was measured at 450 nm. The means of the duplicate absorbance determination were calculated, and a standard curve was constructed using 4-parametric logistic curve fit. Sample RatLaps concentrations were determined by interpolation.
# [2] = tested on: orchidectomized (Orx/Cx) male Sprague-Dawley rats; assay: Compression test of the distal right femur (Example 3); assay type: in vivo, rat; settings: Toremifene 5 mg/kg/day; for mechanical strength parameters of the distal femur (maximum load, stiffness, ultimate strength, elastic modulus): Orx rats, 17-β-Estradiol 0.5 mg/kg/day s.c.; for Elastic Modulus / Energy / Maximum Load / Stiffness / Toughness / Ultimate Strength / CSA (cross sectional area): castrated (Cx) rats, n=5, 17-β-estradiol 0.5 mg/kg/day s.c.; for Elastic Modulus / Energy / Maximum Load / Stiffness / Toughness / Ultimate Strength: distal right femur compression; for CSA (cross sectional area): distal right femur specimen
# Description: Using a Material Testing System (Model 5501R Instron Corp., Canton, Mass.), two types of mechanical testing were performed on the right femur. The load and extension curves were collected by the machine software (Merlin II, Instron Corp.). All tests were conducted using a 5 kN load cell at a constant loading rate of 6 mm/min. The general applications of the tests were as described in Turner and Burr (Bone, 1993; 14: 595-608) and Ke et al (Bone, 1998; 23, 249-255).
# Compression Test of the Distal Femur
# A compression test was used to determine the mechanical properties of the distal femur. The distal femur test specimen was obtained by removing a 3 mm segment directly proximal to the distal condyle using a slow speed diamond saw with constant saline irrigation. An electronic caliper was used to measure the average anterior/posterior diameter (a), medial/lateral diameter (b), and height (h) of the bone. The extrinsic parameters, maximal load (Fu), stiffness (S) and energy (W), were obtained from the load and extension curve. The following intrinsic parameters were calculated from the measured values: Cross sectional area (CSA)=(π*a*b)/4; Ultimate Strength (σ)=Fu/CSA; Elastic modulus (E)=S/(CSA/h); Toughness (T)=W/(CSA*h).
# Osteocalcin in rat serum = assay: Osteocalcin (OC) in rat serum (Example 4); assay type: in vivo; settings: Orx rats; for OC (osteocalcin) levels in serum: 10 days; for inhibitory effect on OC levels: 28 days
# Description: This assay is specific for rat Osteocalcin and both carboxylated and decarboxylated rat Osteocalcin are recognized. A monoclonal antibody against the N-terminal region of Osteocalcin is bound to the polystyrene wells. The assay was performed in duplicates. 100 ul of standards, control and 1 to 20 diluted samples were added to appropriate wells and incubated overnight at 4 C. After washing the strips, 100 ul of Goat polyclonal antibody of high specificity for C-terminus of rat Osteocalcin was added and incubated 60 min at 37 C. After washing, 100 ul of Donkey anti-goat IgG peroxidase conjugated antibody was added and incubated 60 min at 22 C. The wells were washed and a mix of TMB and peroxide solution was added and incubated 30 min at 22 C in the dark. The reaction was stopped, and the absorbance was measured at 450 nm. A standard curve was constructed using 4-parametric logistic curve fit. Sample osteocalcin concentrations were determined by interpolation. Eight month-old male Sprague Dawley rats were either sham-operated (SHAM) or orchidectomized (ORX). Treatment began immediately following surgery. The treatment groups were as described in Table 5.
# [3] = tested on: orchidectomized rats (ORX); assay: Three point bending test of the femoral shaft (Example 4); assay type: in vivo, rat; settings: 12 weeks, mean
# Description: (§1) Eight month-old male Sprague Dawley rats were either sham-operated (SHAM) or orchidectomized (ORX). Treatment began immediately following surgery. The treatment groups were as described in Table 5. Bone strength was evaluated using a compression test at the vertebral body, a three point bending test at the femoral shaft, a compression test at the distal femur and a cantilever compression test of the femoral neck. Prior to mechanical testing, all samples were thawed in cold saline and carefully cleaned of any remaining adherent soft tissue.
# [4] = tested on: orchidectomized rats (ORX); assay: Cantilever compression test of the femoral neck (Example 4); assay type: in vivo, rat; settings: 12 weeks, mean
# Description: as §1
# [5] = Toremifene 5 mg/kg/d, Estradiol 0.2 mg/kg/d
SMILES,C-telopeptide levels in serum [1],"mechanical strength parameters of the distal femur (maximum load, stiffness, ultimate strength, elastic modulus) [2]",Elastic Modulus [2] [MPa],Energy [2] [mJ],Maximum Load [2] [N],Stiffness [2] [N/mm],Toughness [2] [MJ/m³],Ultimate Strength [2] [N/mm^2],CSA (cross sectional area) [2] [mm^2],"OC (osteocalcin) levels in serum (Osteocalcin in rat serum; E 0.2 mg/kg/d, 5 mg-Tor)","Elastic Modulus [3, 5] [MPa]","Energy [3, 5] [mJ]","Maximum Load [3, 5] [N]","Stiffness [3, 5] [N/mm]","Toughness [3, 5] [MJ/m^3]","Ultimate Strength [3, 5] [N/mm^2]",also measured
C[C@]12CC[C@@H]3c4ccc(O)cc4CC[C@H]3[C@@H]1CC[C@@H]2O [17-β-Estradiol],reduced the C-telopeptide levels to or below control values,statistically significant improvements in these parameter values,753.44,58.28,613.61,4842.67,0.98,31.23,19.75,reversed OC levels to slightly below that of Sham group,5149.41,98.61,287.22,986.71,6.85,172.51,Energy ([4]; 0.2 mg/kg/d): 40.07 mJ; Maximum Load ([4]; 0.2 mg/kg/d): 114.96 N; Stiffness ([4]; 0.2 mg/kg/d): 209.95 N/mm
CN(C)CCOc1ccc(/C(=C(/CCCl)c2ccccc2)c2ccccc2)cc1 [Toremifene],reduced the C-telopeptide levels to or below control values,improved various parameters to a level that was better than Sham-operated animals,579.07,56.96,467.01,3856.71,0.86,22.13,21.30,reversed OC levels to slightly below that of Sham group,4505.90,83.40,263.54,944.78,5.67,150.45,"OC (osteocalcin) levels in serum (Osteocalcin in rat serum; 10 mg-Tor): reversed OC levels to slightly below that of Sham group; inhibitory effect on OC levels (Osteocalcin in rat serum; continued at 42 days, 10 mg-Tor): more pronounced than both 5 mg Tor and E; inhibitory effect on OC levels (Osteocalcin in rat serum; 5 mg-Tor): same as E; Elastic Modulus ([3]; Toremifene 10 mg/kg/d): 4557.46 MPa; Energy ([3]; Toremifene 10 mg/kg/d): 88.58 mJ; Maximum Load ([3]; Toremifene 10 mg/kg/d): 272.56 N; Stiffness ([3]; Toremifene 10 mg/kg/d): 910.47 N/mm; Toughness ([3]; Toremifene 10 mg/kg/d): 6.16 MJ/m^3; Ultimate Strength ([3]; Toremifene 10 mg/kg/d): 161.23 N/mm^2; Energy ([4]; 5 mg/kg/d): 46.53 mJ; Maximum Load ([4]; 5 mg/kg/d): 116.46 N; Stiffness ([4]; 5 mg/kg/d): 211.77 N/mm; Energy ([4]; 10 mg/kg/d): 44.59 mJ; Maximum Load ([4]; 10 mg/kg/d): 117.50 N; Stiffness ([4]; 10 mg/kg/d): 211.73 N/mm"
